In patent publication US20230138851A1, “NOVEL ALKYNE DERIVATIVES” (CARNA BIOSCIENCES, INC., priority 2020, published 2023):
pIC50: −log10 of the molar value.

How the values were obtained:
Assay type in all cases: biochemical
DYRK1A = molecular target: T1, DYRK1A (Homo sapiens, UniProt Q13627); assay: Inhibition test on activity of DYRK family, mobility shift assay (MSA), DYRK1A; details: ATP 100 μM, FITC-labeled DYRKtide peptide substrate, room temperature 1 hour; for pIC50: read-out: Inhibitory Activity 1a (IC50 against DYRK1A)
T1 construct: purchased Carna Biosciences, Inc. 04-130
Procedure: (§1) [Inhibition Test on Activity of DYRK Family (DYRK1A, DYRK1B, DYRK2, and […])]
(§2) (Method for Measuring Kinase Activity)
(§3) The kinase activity was measured by mobility shift assay (MSA) method using QuickScout Screening Assist™ MSA (commercially available kit manufactured by Carna Biosciences, Inc.). The substrate of the kinase reaction used was an FITC-labeled DYRKtide peptide included in the kit. An assay buffer [20 mM HEPES, 0.01% Triton X-100™, 2 mM dithiothreitol, pH 7.5] was used to create a substrate mixture solution with a substrate (4 μM), MgCl2 (20 mM), and ATP (DYRK1A: 100 μM; DYRK1B: 200 μM; DYRK2: 40 μM; and DYRK3: 20 μM). In addition, kinases (DYRK1A: manufactured by Carna Biosciences, Inc., Cat. No. 04-130; DYRK1B: manufactured by Carna Biosciences, Inc., Cat. No. 04-131; DYRK2; manufactured by Carna Biosciences, Inc., Cat. No. 04-132; and DYRK3; manufactured by Carna Biosciences, Inc., Cat. No. 04-133) were diluted with the assay buffer to prepare enzyme solutions (DYRK1A: 0.2 ng/μL; DYRK1B: 0.08 ng/μL; DYRK2: 0.04 ng/μL; and DYRK3: 0.25 ng/μL). The 10 mM solution of the test compound in DMSO was further diluted with DMSO to 10 levels of the concentration (0.00003 mM, 0.0001 mM, 0.0003 mM, 0.001 mM, 0.003 mM, 0.01 mM, 0.03 mM, 0.1 mM, 0.3 mM, and 1 mM), each of which was subjected to 25-fold dilution with the assay buffer to obtain a drug solution (4% DMSO solution). 5 μL of the drug solution or a control solution (4% DMSO-assay buffer), 5 μL of the substrate mixture solution, and 10 μL of the enzyme solution were mixed in the wells of a polypropylene 384-well plate and allowed to react at room temperature for 1 hour, and then the reaction was quenched by adding 60 μL of the termination buffer included in the kit. Subsequently, the quantities of the substrates (S) and the phosphorylated substrate (P) in the reaction solution were measured using LabChip EZ Reader II system (manufactured by Caliper Life Sciences) according to the protocol of the assay kit.
(§4) (Method for Evaluating Inhibitory Activity)
(§5) The heights of the peaks of the “substrate” and the “phosphorylated substrate” were expressed as S and P, respectively, and a blank containing the assay buffer instead of the enzyme solution was also measured.
(§6) The inhibition rate (%) of the test compound was calculated according to the following equation:
(§7) Inhibition rate (%)=(1−(C−A)/(B−A))×100
(§8) wherein, A, B, and C represent P/(P+S) of the blank well, P/(P+S) of the control solution well, and P/(P+S) of the compound-containing well, respectively.
(§9) The IC50 value was calculated via a regression analysis of the inhibition rate and the test compound concentration (logarithmic value).
(§10) The inhibiting activities of representative compounds of the present invention are shown against DYRK1A, DYRK1B, DYRK2, and DYRK3 in Tables 7 and 8. The kinase activity inhibitory effect was indicated with the mark *** at an IC50 value of less than 0.01 μM; the mark ** at 0.01 μM or more and less than 0.1 μM; the mark * at 0.1 μM or more and less than 1 μM; and the mark — at 1 μM or more (N.D. indicates not measured).

DYRK2 = molecular target: T2, DYRK2 (Homo sapiens, UniProt Q92630); assay: Inhibition test on activity of DYRK family, mobility shift assay (MSA), DYRK2; details: ATP 40 μM, FITC-labeled DYRKtide peptide substrate, room temperature 1 hour; for pIC50: read-out: Inhibitory Activity 2 (IC50 against DYRK2)
T2 construct: purchased Carna Biosciences, Inc. 04-132
T2 sequence (Q92630 1-601): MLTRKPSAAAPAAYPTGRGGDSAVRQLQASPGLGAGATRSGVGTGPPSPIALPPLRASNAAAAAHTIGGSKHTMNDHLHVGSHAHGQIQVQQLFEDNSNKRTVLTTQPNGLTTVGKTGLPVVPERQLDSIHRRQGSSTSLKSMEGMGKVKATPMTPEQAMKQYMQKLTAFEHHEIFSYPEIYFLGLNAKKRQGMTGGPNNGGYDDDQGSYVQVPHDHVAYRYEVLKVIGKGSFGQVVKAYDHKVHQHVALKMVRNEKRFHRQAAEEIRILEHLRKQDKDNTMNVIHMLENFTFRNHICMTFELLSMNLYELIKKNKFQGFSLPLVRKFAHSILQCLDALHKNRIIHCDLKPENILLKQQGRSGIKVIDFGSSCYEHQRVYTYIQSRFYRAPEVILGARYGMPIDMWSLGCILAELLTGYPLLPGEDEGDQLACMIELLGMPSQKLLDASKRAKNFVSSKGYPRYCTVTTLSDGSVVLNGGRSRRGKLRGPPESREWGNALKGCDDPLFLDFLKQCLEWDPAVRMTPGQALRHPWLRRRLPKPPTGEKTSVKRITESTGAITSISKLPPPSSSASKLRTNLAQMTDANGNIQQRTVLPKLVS
Procedure: as §1, §2, §3, §4, §5, §6, §7, §8, §9, §10

DYRK3 = molecular target: T3, DYRK3 (Homo sapiens, UniProt O43781); assay: Inhibition test on activity of DYRK family, mobility shift assay (MSA), DYRK3; details: ATP 20 μM, FITC-labeled DYRKtide peptide substrate, room temperature 1 hour; for pIC50: read-out: Inhibitory Activity 3 (IC50 against DYRK3)
T3 construct: purchased Carna Biosciences, Inc. 04-133
T3 sequence (O43781 1-588): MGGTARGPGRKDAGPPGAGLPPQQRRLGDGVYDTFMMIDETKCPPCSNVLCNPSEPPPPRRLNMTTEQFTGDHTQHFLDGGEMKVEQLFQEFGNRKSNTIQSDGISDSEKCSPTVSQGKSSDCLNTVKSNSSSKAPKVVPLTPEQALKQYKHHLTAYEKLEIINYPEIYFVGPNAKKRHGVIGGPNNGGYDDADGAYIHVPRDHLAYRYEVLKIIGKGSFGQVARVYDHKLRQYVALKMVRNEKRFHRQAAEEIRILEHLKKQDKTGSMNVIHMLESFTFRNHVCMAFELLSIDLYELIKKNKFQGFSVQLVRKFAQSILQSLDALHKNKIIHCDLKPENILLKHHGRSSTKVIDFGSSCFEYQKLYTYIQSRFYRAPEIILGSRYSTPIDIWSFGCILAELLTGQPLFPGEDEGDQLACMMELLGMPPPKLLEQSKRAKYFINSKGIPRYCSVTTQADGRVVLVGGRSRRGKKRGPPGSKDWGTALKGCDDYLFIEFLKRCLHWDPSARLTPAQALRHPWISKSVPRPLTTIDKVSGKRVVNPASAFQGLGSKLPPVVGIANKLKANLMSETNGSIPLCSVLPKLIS
Procedure: as §1, §2, §3, §4, §5, §6, §7, §8, §9, §10

Row | pIC50 (DYRK1A) | pIC50 (DYRK2) | pIC50 (DYRK3) | Inhibitory Activity 1a (IC50 against DYRK1A) (DYRK1A) | Inhibitory Activity 2 (IC50 against DYRK2) (DYRK2) | Inhibitory Activity 3 (IC50 against DYRK3) (DYRK3) | SMILES
1 | 6.00 to 7.00 | ≤ 6.00 | ≤ 6.00 | – | – | – | CC#CC1CNC(=O)N1c1nc2c3c(ccc2s1)OCC3 (single isomer, unassigned) [Example 10, 1-(7,8-dihydrobenzofuro[4,5-d]thiazol-2-yl)-5-(prop-1-yn-1-yl)imidazolidin-2-one]
2 | – | – | – | * * * | * * | * * | C#CC1CNC(=O)N1c1nc2c3c(ccc2s1)OCC3 (single isomer, unassigned) [Example 13, 1-(7,8-dihydrobenzofuro[4,5-d]thiazol-2-yl)-5-ethynylimidazolidin-2-one]
3 | – | 6.00 to 7.00 | 6.00 to 7.00 | * * | – | – | C#CC1CNC(=O)N1c1nc2c3c(ccc2s1)OCC3 (single isomer, unassigned) [Example 14, 1-(7,8-dihydrobenzofuro[4,5-d]thiazol-2-yl)-5-ethynylimidazolidin-2-one]
4 | – | – | – | * * * | * * | * * | CC#CC1CNC(=O)N1c1nc2c(ccc3ncccc32)s1 (single isomer, unassigned) [Example 34, 5-(prop-1-yn-1-yl)-1-(thiazolo[4,5-f]quinolin-2-yl)imidazolidin-2-one]
5 | – | 6.00 to 7.00 | 6.00 to 7.00 | * * | – | – | CC#CC1CNC(=O)N1c1nc2c(ccc3ncccc32)s1 (single isomer, unassigned) [Example 36, 5-(prop-1-yn-1-yl)-1-(thiazolo[4,5-f]quinolin-2-yl)imidazolidin-2-one]
6 | 6.00 to 7.00 | ≤ 6.00 | ≤ 6.00 | – | – | – | CC#CC1CNC(=O)N1c1nc2c3c(ccc2s1)OCC(C)N3C (single isomer, unassigned) [Example 48, 1-(-8,9-dimethyl-8,9-dihydro-7H-thiazolo[4′,5′:3,4]benz[1,2-b][1,4]oxazin-2-yl)-5-(prop-1-yn-1-yl)imidazolidin-2-one]
7 | – | ≤ 6.00 | 6.00 to 7.00 | * * * | – | – | CC#CC1CNC(=O)N1c1nc2c3c(ccc2s1)OCC(C)N3C (single isomer, unassigned) [Example 49, 1-(-8,9-dimethyl-8,9-dihydro-7H-thiazolo[4′,5′:3,4]benz[1,2-b][1,4]oxazin-2-yl)-5-(prop-1-yn-1-yl)imidazolidin-2-one]
8 | – | ≤ 6.00 | 6.00 to 7.00 | * * * | – | – | CC#CC1CNC(=O)N1c1nc2c(ccc3ocnc32)s1 (single isomer, unassigned) [Example 52, 5-(prop-1-yn-1-yl)-1-(thiazolo[5′,4′:5,6]benz[1,2-d]oxazol-7-yl)imidazolidin-2-one]
9 | 6.00 to 7.00 | ≤ 6.00 | ≤ 6.00 | – | – | – | CC#CC1CNC(=O)N1c1nc2c(ccc3ocnc32)s1 (single isomer, unassigned) [Example 53, 5-(prop-1-yn-1-yl)-1-(thiazolo[5′,4′:5,6]benz[1,2-d]oxazol-7-yl)imidazolidin-2-one]
10 | – | 6.00 to 7.00 | – | * * * | – | * * | CC#CC1CNC(=O)N1c1nc2c3c(ccc2s1)OCCO3 (single isomer, unassigned) [Example 58, 1-(7,8-dihydro-[1,4]dioxino[2′,3′:5,6]benz[1,2-d]thiazol-2-yl)-5-(prop-1-yn-1-yl)imidazolidin-2-one]
11 | ≤ 6.00 | ≤ 6.00 | ≤ 6.00 | – | – | – | CC#CC1CNC(=O)N1c1nc2c3c(ccc2s1)OCCO3 (single isomer, unassigned) [Example 59, 1-(7,8-dihydro-[1,4]dioxino[2′,3′:5,6]benz[1,2-d]thiazol-2-yl)-5-(prop-1-yn-1-yl)imidazolidin-2-one]
12 | – | 6.00 to 7.00 | 6.00 to 7.00 | * * * | – | – | CC#C[C@H]1[C@H](CO)NC(=O)N1c1nc2c3c(ccc2s1)OCCO3 (single isomer, unassigned) [Example 65, trans-1-(7,8-dihydro-[1,4]dioxino[2′,3′:5,6]benz[1,2-d]thiazol-2-yl)-4-(hydroxymethyl)-5-(prop-1-yn-1-yl)imidazolidin-2-one]
13 | 6.00 to 7.00 | ≤ 6.00 | ≤ 6.00 | – | – | – | CC#C[C@H]1[C@H](CO)NC(=O)N1c1nc2c3c(ccc2s1)OCCO3 (single isomer, unassigned) [Example 66, trans-1-(7,8-dihydro-[1,4]dioxino[2′,3′:5,6]benz[1,2-d]thiazol-2-yl)-4-(hydroxymethyl)-5-(prop-1-yn-1-yl)imidazolidin-2-one]
14 | – | ≤ 6.00 | 6.00 to 7.00 | * * | – | – | CC#C[C@H]1[C@H](CN(C)C)NC(=O)N1c1nc2c3c(ccc2s1)OCC3 (single isomer, unassigned) [Example 69, trans-1-(7,8-dihydrobenzofuro[4,5-d]thiazol-2-yl)-4-[(dimethylamino)methyl]-5-(prop-1-yn-1-yl)imidazolidin-2-one]
15 | 6.00 to 7.00 | ≤ 6.00 | ≤ 6.00 | – | – | – | CC#C[C@H]1[C@H](CN(C)C)NC(=O)N1c1nc2c3c(ccc2s1)OCC3 (single isomer, unassigned) [Example 70, trans-1-(7,8-dihydrobenzofuro[4,5-d]thiazol-2-yl)-4-[(dimethylamino)methyl]-5-(prop-1-yn-1-yl)imidazolidin-2-one]
